# Test results reported in PubChem BioAssay (NCI).
# Where “and” joins values, the source holds several entries; their conditions need not be identical. Equal entries are not always repeated.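 Protocol summary: plate cells (96-well), add compound at 5 concentrations, incubate 48 h, interpolate endpoints linearly. TGI: concentration producing complete growth inhibition.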
# How the values were obtained:
# Assay in all cases: NCI tumour cell line growth inhibition, 48 h
# [1] = tested on: 786-0 renal
# [2] = tested on: A498 renal
# [3] = tested on: CAKI-1 renal
# [4] = tested on: K-562 leukemia
# [5] = tested on: MCF7 breast
# [6] = tested on: MDA-MB-435
# [7] = tested on: NCI-H23 lung
# [8] = tested on: NCI-H460 lung
# [9] = tested on: NCI-H522 lung
# [10] = tested on: OVCAR-3 ovarian
# [11] = tested on: PC-3 prostate
# [12] = tested on: SK-MEL-2 melanoma
# [13] = tested on: SK-MEL-5 melanoma
# [14] = tested on: SW-620 colon
# [15] = tested on: UO-31 renal
# [16] = tested on: HOP-62 NSCLC
# [17] = tested on: MALME-3M melanoma
# [18] = tested on: RXF 393 renal
SMILES,TGI [1] [µM],TGI [2] [µM],TGI [3] [µM],TGI [4],TGI [5] [µM],TGI [6] [µM],TGI [7] [µM],TGI [8] [µM],TGI [9],TGI [10] [µM],TGI [11] [µM],TGI [12] [µM],TGI [13],TGI [14] [µM],TGI [15] [µM],TGI [16] [µM],TGI [17] [µM],TGI [18] [µM]
COc1cc(C2SCC(=O)N2c2ccccc2Cl)cc(OC)c1OC (configuration not stated),> 100,> 100,> 100,> 100 µM,> 100,64.8,> 100,> 100,> 100 µM,> 100,> 100,> 100,> 100 µM,> 100,> 100,–,–,–
CN1C2CCC1CC(CCOC(c1ccc(F)cc1)c1ccc(F)cc1)C2 (configuration not stated),30.7,36.1,32.6,35.8 µM,–,25.7,42.1,32.2,31.9 µM,32.4,29.6,31.4,21.3 µM,41.8,27.9,30.9,29.3,22.6
CCN(CC)C(=C(C(Cl)=C(Cl)Cl)[N+](=O)[O-])N(CC)CC,> 100,> 100,> 100,> 100 µM,> 100,–,> 100,> 100,–,> 100,> 100,–,> 100 µM,> 100,> 100,> 100,91.6,67
Cc1oc2c(c1C)S(=O)(=O)C(C#N)C(c1ccccc1)N2 (configuration not stated),> 100,> 100,> 100,–,> 100,> 100,> 100,> 100,40.2 µM,> 100,> 100,> 100,> 100 µM,> 100,> 100,> 100,> 100,–
COc1ccc2nc3c([N+](=O)[O-])ccc4c3c(c2c1)N=CN4CCCN(C)C,14.3,21.4,7.26,2.19 µM,11.6,20.1,18.7,16.3,9.61 µM,20.2,13,22.8,12.1 µM,> 44.3,10.7,15.1,28.2,–
Cc1oc2c(c1C)S(=O)(=O)C(C#N)=C(c1ccccc1)N2,> 100,> 100,> 100,> 100 µM,> 100,> 100,> 100,> 100,> 100 µM,> 100,> 100,> 100,> 100 µM,> 100,> 100,> 100,> 100,–
COC(=O)c1cc2c(o1)Sc1ccccc1NC2=O,> 100,> 100,> 100,> 100 µM,> 100,> 100,> 100,> 100,> 100 µM,> 100,> 100,> 100,> 100 µM,> 100,–,> 100,–,–
Cc1csc2nc3c(cnn3C)c(=S)n12,> 100,–,> 100,> 100 µM,> 100,> 100,> 100,> 100,41.9 µM,> 100,> 100,> 100,> 100 µM,> 100,> 100,> 100,> 100,> 100
COc1ccc([N+]2=NC(c3ccc([N+](=O)[O-])cc3)=NN(c3ccccc3)C2)cc1,> 100,> 100,–,97.3 µM and > 100 µM,–,–,> 100,> 100,5.87 µM and 10.5 µM,> 100,–,–,61.5 µM and 83.9 µM,> 100,> 100,> 100,> 100,> 100
Ic1ncnc2c1ncn2C1CCCO1 (configuration not stated),> 100,> 100,> 100,> 100 µM,–,–,> 100,> 100,> 100 µM,> 100,–,> 100,> 100 µM,> 100,> 100,> 100,> 100,–
CCN(CC)CCC(=O)NC1c2ccc(Cl)cc2Oc2c(C)cccc21 (configuration not stated),25.2,–,–,40.7 µM,31,28.3,31.5,31.7,31.6 µM,28.8,26.7,–,26.1 µM,33.2,21.5,–,–,–
COc1cc(OCc2ccc3nc(-c4ccccc4)c(Cl)nc3c2)cc(OC)c1OC,> 100,98.9,> 100,–,> 100,> 100,> 100,> 100,> 100 µM,> 100,> 100,> 100,> 100 µM,> 100,> 100,> 100,96.1,–
COc1ccc2cc(Oc3ccc(Cl)cc3)c(=O)oc2c1,> 100,> 100,> 100,> 100 µM,> 100,–,> 100,> 100,> 100 µM,> 100,> 100,–,> 100 µM,> 100,> 100,> 100,> 100,> 100
Cc1cc(C)nc(NS(=O)(=O)c2ccc(Nc3c4ccccc4nc4c(C(=O)NNCCO)cccc34)cc2)n1,> 100,> 100,> 100,> 100 µM,> 100,> 100,> 100,> 100,> 100 µM,> 100,> 100,> 100,> 100 µM,> 100,> 100,> 100,> 100,–
